Results as given in patent US6017932A, “Pharmaceutical compositions containing at least one NSAID having increased bioavailability” (priority 1996, dated 2000).
“Also recorded” adds a separate entry of the source. Read-outs that look alike come from different tables or passages of the source.

Columns and labels:
[1] = system: histamine release, neutrophil myeloperoxidase pathway, bradykinin activity, phosphodiesterase type IV and others; conditions: in words; cited from earlier work
[2] = cited from earlier work
[3] = cited from earlier work; for effect of Piperine on bio-availability (in words): with Piperine; for mean increase in AUC: formulations with Piperine vs without
COX-II = conditions: vs COX-I; cited from earlier work
in vivo = conditions: rat, plasma, po, 10 mg/kg
Protocol: The single test point pharmacokinetic studies were performed in two groups of rats. […] Rats were sacrificed at 90 minutes. post treatment and blood samples were analysed by HPLC.

[4] = system: painful inflammatory conditions; conditions: cited from earlier work
yeast-induced fever = conditions: rats with yeast-induced fever; cited from earlier work
[5] = relative to other NSAIDs; cited from earlier work
[6] = Plasma levels of Nimesulide in rats after composition with/without Piperine (Experiment I); assay type: in vivo, albino rats
Protocol: The rats were housed 5 per cage with food and water provided ad libidum.
On the day of experimentation the rats were randomised into ten batches of 5 rats each. Four groups were formed. Group I consisted of one batch of 5 rats, which was kept as control which received no drug treatment. Group II consisted of four batches of five rats each. […] Rats of batch I from Group II were sacrificed 60 minutes post treatment after Chloroform anaesthesia. Batch 2,3 and 4 were similarly sacrificed at 120 min., 240 min. and 360 min. post treatment respectively. Blood was collected from the rats from the ventricle into heparinised tubes.
Group III consisted of one batch of 5 rats, which received only Piperine at a dose level of 1.0 mg/kg body wt. The animals were sacrificed 160 minutes post treatment after Chloroform anaesthesia. Blood was collected from the rats from the ventricle into heparinised tubes.
Group IV consisted of 4 batches of 5 rats each. […] Rats of batch 1 from Group IV were sacrificed 60 minutes post treatment after Chloroform anaesthesia. Batch 2, 3 and 4 were similarly sacrificed at 120 min., 240 min. and 360 min. post treatment respectively. Blood was collected from the rats from the ventricle into heparinised tubes.
The blood samples were centrifuged at 3700 rpm and the plasma separated. To 1 ml plasma 0.5 ml of HCl was added and then extracted with 2 ml of benzene. Extracted benzene was evaporated in a water bath at 95° C. and reconstituted with 100 μl of mobile phase and 10 μl was injected into the HPLC.
Waters HPLC fitted with C8 μ Bondapack was used along with Waters UV-Vis detector (254 nm). Acetonitrile 50% with 50% Ammonium di-hydrogen Phosphate (0.01M) in double distilled, filtered (0.22 μ) water was used as the mobile phase.
Unpaired student T test was applied on the data. Level of significance was fixed at p<0.05.

[7] = rectal, nimesulide 100 and 200 mg; cited from earlier work
[8] = system: renal prostaglandin synthesis; conditions: rats; cited from earlier work
plasma proteins = conditions: human; cited from earlier work
[9] = cited from earlier work; remark: listed apart in the source
[10] = in words; cited from earlier work
[11] = oral, 50 to 200 mg nimesulide, healthy adult volunteers

## CS(=O)(=O)Nc1ccc([N+](=O)[O-])cc1Oc1ccc(O)cc1 [4-hydroxy-nimesulide]
[1]
  other effects: appears to contribute to the anti-inflammatory activity
[2]; patients with moderate renal impairment
  accumulation: Slight accumulation

## CC[C@@H](CO)NCCN[C@@H](CC)CO [Ethambutol]
[3]
  effect of Piperine on bio-availability (in words): increase bio-availability

## NNC(=O)c1ccncc1 [Isoniazid]
[3]
  mean increase in AUC: 131%

## COc1ccc2cc(CCC(C)=O)ccc2c1 [Nabumetone]
COX-II
  COX-II selectivity (in words): selectively inhibit the detrimental COX-II

## CS(=O)(=O)Nc1ccc([N+](=O)[O-])cc1Oc1ccccc1 [Nimesulide, N-(4-nitro, 2-phenoxyphenyl) methanesulfonamide]
[1]
  other effects: appears to exert its effects on histamine release, the neutrophil myeloperoxidase pathway, bradykinin activity, tumour necrosis factor-a release, cartilage degradation, metalloprotease synthesis, phosphodiesterase type IV inhibition, platelet aggregation and synthesis of platelet activating factor
In vivo
  concentration at 1.5 h: 8820 µg/mL
[4]; human, in vivo
  onset of analgesia: rapid onset of analgesia
[4]; in words
  efficacy in cancer pain: highly efficaceous in cancer pain
[4]; oral mostly 200 mg/day or rectal 400 mg/day
  clinical efficacy vs placebo: more effective than placebo
[4]; vs piroxicam, ketoprofen, naproxen, etodolac, mefenamic acid, diclofenac and others
  clinical efficacy vs other NSAIDs: at least as effective as therapeutic dosages of other NSAIDs
yeast-induced fever
  antipyretic potency: superior antipyretic potency to indomethacin, ibuprofen, aspirin and paracetamol (acetaminophen)
[5]
  ulcerogenicity / gastric tolerance: less ulcerogenic than aspirin, indomethacin, naproxen, piroxicam and ibuprofen; also recorded: better gastric tolerance than other commonly used NSAIDs
[2]; children, elderly volunteers, moderately impaired renal function (creatinine clearance 1.8 to 4.8 L/h)
  pharmacokinetic profile in special populations: not significantly altered
[6]; 240 min, Nimesulide alone 1.8 mg/kg
  Concentration of the drug in plasma: 4.6 ± 1.4 kg/mL
[6]; rat, plasma, po, 1.8 mg/kg
  concentration at 1 h: 5800 ± 1700 µg/mL
  concentration at 2 h: 7900 ± 2300 µg/mL
  concentration at 4 h: 4600 ± 1400 µg/mL
  concentration at 6 h: 2200 ± 1100 µg/mL
[7]
  peak serum concentrations: 2.14 to 2.32 mg/L
  time to peak serum concentration: 3 to 4.58 h
[8]
  effect on renal prostaglandin synthesis: little effect on renal prostaglandin synthesis in rats
Plasma proteins
  bound to plasma proteins: 99%
[9]; concomitant administration of food
  effect of food on absorption: may decrease the rate, but not the extent, of absorption
[9]; following oral administration
  apparent volume of distribution: 0.19 to 0.35 L/kg
[9]; human, in vivo, po
  dose excreted unchanged in the urine: 1 to 3%
[9]; in words
  biotransformation: almost completely biotransformed into 4-hydroxy-nimesulide
  oral drug absorption: nearly complete
[9]; [11]
  peak serum concentrations: 1.98 to 9.85 mg/L
  time to peak serum concentration: 1.22 to 3.17 h
[9]; parent compound
  elimination half-life: 1.56 to 4.95 h

## O=C(/C=C/C=C/c1ccc2c(c1)OCO2)N1CCCCC1 [Piperine, (E, E) 1-[5-(1,3-benzodioxyl-5-yl)-1-oxo-2,4-pentadenyl] piperidine]
[6]; 120 min. post treatment, Nimesulide 1.8 mg/kg with or without Piperine 1.0 mg/kg, oral, rats
  Plasma levels of Nimesulide: Nil
[10]
  solubility / insolubility: soluble in benzene, chloroform, ether, ethyl acetate, dichloromethane, alcohol, acetic acid and insoluble in water, pet. ether

## NC(=O)c1cnccn1 [Pyrazinamide]
[3]
  mean increase in AUC: 36%

## CO[C@H]1/C=C/O[C@@]2(C)Oc3c(C)c(O)c4c(O)c(c(/C=N/N5CCN(C)CC5)c(O)c4c3C2=O)NC(=O)/C(C)=C\C=C\[C@H](C)[C@H](O)[C@@H](C)[C@@H](O)[C@@H](C)[C@H](OC(C)=O)[C@@H]1C [Rifampicin]
[3]
  mean increase in AUC: 37.6%

## CCCCNC(=O)NS(=O)(=O)c1ccc(C)cc1 [tolbutamide]
[3]
  effect of Piperine on bio-availability (in words): no effect on enhancing the bio-availability
